# Data published in patent publication US20230183303A1, “Therapeutic Potential of Peptides from the "Netrin-Like" Domain of the FRZB Protein” (Université de Lorraine, priority 2020, published 2023).
# Assays:
# ATDC5 micromasses = assay: Glycosaminoglycan/proteoglycan quantification (Alcian blue staining) in ATDC5 micromasses; assay type: cell-based, mouse
# Procedure: Mouse chondrogenic ATDC5 cells (cartilage-specific chondrogenic strain) were cultured until confluent in maintenance medium containing 1:1 Dulbecco's modified Eagle's medium (DMEM): Ham's F-12 mix (Gibco) supplemented with 1% antibiotic (AB, Penicillin-Streptomycin, Gibco), 5% fetal bovine serum (FBS) (Gibco) and enriched with […] human transferrin (Sigma) and 30 nM sodium selenite (Sigma). Cells were trypsinized, washed and resuspended at 2.10^7 cells/mL in a chondrogenic medium made of maintenance medium enriched by 1× of ITS premix (resulting in 10 μg/mL insulin, 10 μg/mL human transferrin and 30 nM sodium selenite) (Life technologies). One droplet of cell suspension (10 μL) was placed at the center of each well of a 24-well plate. Cells were allowed to adhere for 2 h at 37° C., followed by addition of 500 μL chondrogenic medium supplemented. […] After 14 days, induction of hypertrophic differentiation and mineralization was induced by the mineralization medium made of α-MEM medium (Gibco) containing 1% AB, 5% FBS, 5 μg/ml human transferrin, 1× of ITS premix, 50 μg/ml ascorbic acid-2-phosphate (AA) (Sigma) and 10 mM β-glycerophosphate (BGP) (Sigma). […] Micromasses were collected at time points 1, 7, 14 21 and 28 days. Each time point was processed in three technical replicates. The medium was changed every other day. […] The genes of interest were articular chondrocyte markers (aggrecan, type 2 collagen (col2a1)), YAP/TAZ target genes (ctgf, ankrd) and pro-catabolic enzymes involved in the pathophysiology of OA (mmp3, mmp13).
# Micromasses were washed with PBS and fixed with 95% ice-cold ethanol for 30 min at 4° C. for staining. After washing with distilled water, micromasses were stained with Alcian Blue (0.1% Alcian Blue 8GX, (Sigma)), washed three times with distilled water to remove unbound staining and air-dried.
# [1] = tested on: mouse articular chondrocytes; assay: qRT-PCR relative expression of genes of interest in mouse articular chondrocytes; assay type: cell-based
# Procedure: (§1) Mouse articular chondrocyte (MACs) were isolated from femoral heads by enzymatic digestion of whole femoral head caps. Samples were washed three times in 1% AB/phosphate buffered saline (PBS) and incubated with 2 mg/ml pronase (Roche)/DMEM-F12 at 37° C. for 1 h at slow rotation 100 rpm followed by a 3 h incubation with 1.5 mg/ml collagenase B (Roche)/DMEM-F12 at 37° C. Cells were seeded at 1×10^6 cells/[…], and cultured for 7 to 14 days in growth medium DMEM-F12, containing 1% AB (Gibco), 10% FBS (Gibco) and 5% L-glutamine (Thermoscientific). Passage 1 cells were utilized for the experiments. The culture supernatants were then harvested in order to perform MMP13 enzymatic activity assay. The evaluation of the expression of genes of interest included articular chondrocyte markers (aggrecan, type 2 collagen (col2a1)), YAP/TAZ target genes (ankrd) and pro-catabolic enzyme involved in the pathophysiology of OA (mmp3).
# Total RNA was isolated using the Nucleospin RNA II kit (Macherey-Nagel) and reverse-transcribed using the MMLV reverse transcriptase (Thermo Fisher Scientific) following the manufacturers' instructions. The iTaq SYBR green qPCR master mix (BioRad) was used to assess the mRNA expression of target genes of interest. Primer sequences can be provided upon request. The following PCR conditions were used: 1 minute at 95° C., 40 cycles of 15 sec of denaturation at 95° C., followed by 1 minute of annealing-elongation at 60° C. Melting curve analysis was performed to determine the amplification of the specific product. Results were expressed using the comparative threshold method and were normalized to housekeeping gene PPIA (Peptidylprolyl Isomerase A) mRNA level for ATDC5 cells and MACs, or normalized to housekeeping gene S29 (ribosomal protein S29) mRNA level for MC3T3-E1 cells. The Via7 real-time PCR system (Thermo Fisher Scientific) was used for qRT-PCR measurements.
# MMP13 [2] = assay: MMP13 enzymatic activity in culture supernatants of human articular cartilage explants (osteoarthritis); assay type: cell-based; settings: PEP16 at 300 ng/mL for 7 days (3 stimulations); explants from 3 patients with end-stage osteoarthritis
# Procedure: Explants of human articular cartilage were obtained from total knee replacement surgeries, from the orthopedic department from the CHRU of Nancy (Pr. Didier Mainard). Samples were washed three times in 1% AB/PBS and incubated for 24 h in growth medium (DMEM-F12, containing 1% AB (Gibco), 10% FBS (Gibco) and 5% L-glutamine (Thermoscientific). Explants were then stimulated with PEP16 at the concentration of 300 ng/ml during 7 days. The culture supernatants were then harvested in order to perform MMP13 enzymatic activity assay.
# (§2) The MMP13 enzymatic activity was assessed using the MMP13 fluorogenic substrate (Merck Millipore). Briefly, culture supernatants harvested at the end of the different experiments were mixed with 1.5 mM of 4-aminophenylmercuric acetate, and incubated for 1 h at 37° C., in order to turn every pro-MMPs into active MMPs. Then, the fluorogenic substrate was added, and the mixture was incubated for 3 h at 37° C. Fluorescence was evaluated using the following parameters, excitation 325 nm and emission 393 nm, on the Varioskan Flash device (Thermo Fisher Scientific). Recombinant human MMP13 was used as a positive control (Merck Millipore). Negative control consisted in growth medium.
# alkaline phosphatase = settings: 300 ng/ml, 1000 ng/ml; day 1 and day 21; vs CTL
# Procedure: MC3T3-E1 cells were differentiated during 21 days as mentioned previously. […] Treated cells were compared to cells without any peptide stimulation (CTL).
# We also assessed the specific alkaline phosphatase activity (μmol de para-nitrophenol/min/mg of protein). To that goal, we lysed the cells using 300 μL of a buffer containing 0.2 M Tris-Base, 1.6 mM MgCl2 pH 8.1 and 1% Triton X-100. Samples were then placed into tubes and put on ice for 30 min. During this time, we alternated periods of 30 sec vortex and 5 min on ice. Then, samples were sonicated, and centrifugated for 15 min at 13 000 g, 4° C. Supernatant was collected, and total protein concentration was evaluated using bicinchoninic acid assay.
# Alkaline phosphatase activity was measured by placing the harvested supernatants in para-nitrophenyl phosphate (pNPP) solution. The alkaline phosphatase will cleave this substrate and generate para-nitrophenol (pNP).
# A solution of 4 mg/mL of pNPP is prepared in buffer A (0.1 M glycine pH 10.5, 0.11% (m/v) Zinc acetate and 0.011% magnesium chloride (m/v)). […]
# Absorbance is read at 410 nm on a Varioskan Flash apparatus. Alkaline phosphatase activity is calculated based on the standard curve (equation A410=a×quantity(ρNP)+b) with the following formula: activity=((A(410 nm)−b)×reaction volume)/(a×sample volume×reaction time)
# MMP13 [3] = assay: MMP13 enzymatic activity in culture supernatants of mouse articular chondrocytes; assay type: cell-based; settings: PEP16 at 300 ng/mL with IL1β at 100 pg/mL; 24 h
# Procedure: as §1
# as §2, with “Then, the fluorogenic substrate was added, and the mixture was incubated for 3 h at 37° C.” left out, “Recombinant human MMP13 was used as a positive control (Merck Millipore). Negative control consisted in growth medium.” left out
# CamKII pathway = assay: Western blot of CamKII pathway activation in MC3T3-E1 cells; assay type: cell-based, mouse; settings: PEP16 at 300 or 1000 ng/mL; early osteogenesis stages
# Description: Each time point was processed in three technical replicates. The medium was changed every two days.
# [4] = PEP16 at 300 ng/mL and wnt3a at 100 ng/mL, 24 and 48 h
sequence,measurement,setting,value
DRLGKKVKRWDMKLRH (PEP16) [peptide derived from the netrin-like domain of the FRZB protein],"proteoglycans deposition in the extracellular matrix (Alcian blue, absorbance 650 nm)","ATDC5 micromasses; 300 ng/ml, 14 days, vs control cells",significantly increase the proteoglycans deposition
same,glycosaminoglycans quantification (accumulation in the extracellular matrix),"ATDC5 micromasses; PEP16 at 30, 100, 300 ng/mL, Alcian blue at day 28, blue pixels and biochemical quantification",significantly increased the accumulation of glycosaminoglycans
same,"expression of Ankrd, a target gene of the Hippo/YAP/TAZ pathway","[1]; 300 ng/mL, 12 h of stimulation",capable of reducing the expression
same,expression of MMP3 induced by Wnt3a,"[1]; 300 ng/mL, wnt3a at 100, 50, 30 ng/mL, 24 h of stimulation",counteract the inductive effects of Wnt3a
same,relative expression level of aggrecan (decrease induced by Wnt3a),[1]; [4],had a tendancy to counteract
same,relative expression level of col2a1 (type 2 collagen; decrease induced by Wnt3a),[1]; [4],had a tendancy to counteract
same,increase of NGF induced by Wnt3a,"[1]; PEP16 with Wnt3a, data not shown",had a tendancy to counteract
same,MMP13 enzymatic activity in culture supernatant,MMP13 [2],capable of reducing the enzymatic activity
same,specific alkaline phosphatase activity,alkaline phosphatase,tended to increase the alkaline phosphatase activity
same,IL1β-induced MMP13 enzymatic activity in culture supernatant,MMP13 [3],significantly reduced
same,CamKII pathway activation,CamKII pathway,efficiently increased the activation
